Test results as given in patent US7553849B2, “Compounds” (Active Biotech AB, priority 2004, dated 2009).

System: acute experimental autoimmune encephalomyelitis (aEAE)
Test: Acute experimental autoimmune encephalomyelitis (aEAE) inhibition in mice
Format: in vivo
Details: for aEAE inhibition (%): percent inhibition of clinical scores vs saline controls; for activity in the aEAE model (in words): mice, no dose stated
[1] = SJL/N female mice, dose 1.0 mg/kg po daily at days 3 to 7 and 10 to 12
[2] = SJL/N female mice, dose 0.2 mg/kg po daily at days 3 to 7 and 10 to 12
[3] = SJL/N female mice, dose 5.0 mg/kg po daily at days 3 to 7 and 10 to 12

Row | SMILES | aEAE inhibition (%) [1] [%] | activity in the aEAE model (in words) | aEAE inhibition (%) [2] [%] | also measured
1 | CN(C(=O)c1c(O)c2ccsc2n(C)c1=O)c1ccccc1 [compound 11, 6,7-dihydro-N,7-dimethyl-4-hydroxy-N-phenyl-6-oxo-thieno[2,3-b]pyridine-5-carboxamide] | 53 | – | – | –
2 | CN(C(=O)c1c(O)c2sccc2n(C)c1=O)c1ccccc1 [compound 12, 4,5-dihydro-N,4-dimethyl-7-hydroxy-N-phenyl-5-oxo-thieno[3,2-b]pyridine-6-carboxamide, reference compound] | – | inactive | – | aEAE inhibition (%), result in words (SJL/N female mice, dose 5.0 mg/kg po, class word defined in footnote): inactive*
3 | O=C(Nc1cccnc1)c1c(O)c2ccsc2[nH]c1=O [6,7-dihydro-4-hydroxy-N-(3-pyridyl)-6-oxo-thieno[2,3-b]pyridine-5-carboxamide, reference compound] | – | inactive | – | –
4 | Cc1csc2c1c(O)c(C(=O)N(C)c1ccccc1)c(=O)n2C [Compound #1, 6,7-dihydro-4-hydroxy-N-phenyl-N,3,7-trimethyl-6-oxo-thieno[2,3-b]pyridine-5-carboxamide] | 99 | – | 85 | –
5 | COc1ccc(N(C)C(=O)c2c(O)c3c(C)csc3n(C)c2=O)cc1 [compound 6, 6,7-dihydro-4-hydroxy-N-(4-methoxyphenyl)-N,3,7-trimethyl-6-oxo-thieno[2,3-b]pyridine-5-carboxamide] | – | – | 92 | –
6 | Cc1scc2c1c(O)c(C(=O)N(C)c1ccccc1)c(=O)n2C [compound 10, 4,5-dihydro-7-hydroxy-N-phenyl-N,1,4-trimethyl-5-oxo-2-thia-4-aza-indene-6-carboxamide] | 78 | – | – | aEAE inhibition (%) [3]: 95%
7 | CCN(C(=O)c1c(O)c2c(C)csc2n(C)c1=O)c1ccccc1 [compound 2, 6,7-dihydro-3,7-dimethyl-N-ethyl-4-hydroxy-N-phenyl-6-oxo-thieno[2,3-b]pyridine-5-carboxamide] | 84 | – | 66 | –
8 | Cc1csc2c1c(O)c(C(=O)N(C)c1cccnc1)c(=O)n2C [compound 13, 6,7-dihydro-4-hydroxy-N-(3-pyridyl)-N,3,7-trimethyl-6-oxo-thieno[2,3-b]pyridine-5-carboxamide, reference compound] | – | poorly active | – | aEAE inhibition (%) [3]: 46%
9 | CCc1csc2c1c(O)c(C(=O)N(C)c1ccccc1)c(=O)n2C [compound 3, 6,7-dihydro-N,7-dimethyl-3-ethyl-4-hydroxy-N-phenyl-6-oxo-thieno[2,3-b]pyridine-5-carboxamide] | 100 | – | 84 | –
